Entries after “also recorded” stand apart in the source; their conditions may differ.
Assays:
GL261 tumor bearing mice = test: GL261 glioma model: tumor lysate vaccine +/- antagonist, tumor growth by imaging and survival; type: in vivo, C57BL/6 mice; details: for Tumor growth: tumor lysate vaccine + antagonist vs tumor lysate alone or saline, weekly imaging; for Survival: GL261 glioma model, tumor lysate vaccine + antagonist
Protocol: FIGS. 4A-4C. FIG. 4A) GL261 tumor bearing mice were inoculated with 50 μg of antagonist 6059 one day prior to vaccination with tumor lysate (65 μg)+/−the antagonist 6059 (50 μg). FIG. 4B) Mice were imaged weekly for tumor growth. The following groups were studied: saline (1), tumor lysate (2), and tumor lysate+6059 (3). FIG. 4C) Percent survival post inoculation for saline (1), tumor lysate (2), and tumor lysate+6059 (3) groups.
FIGS. 5A-5B. FIG. 5A) GL261 tumor bearing mice were inoculated with 10 μg of 6059 on day 2 into the tumor site then with 50 μg of antagonist 6059 one day prior to vaccination with tumor lysate (65 μg)+the antagonist 6059 (50 μg). FIG. 5B) Mice were imaged weekly for tumor growth. The following groups were studied: saline (1), tumor lysate+6059 (2), and CNS+tumor lysate+6059 (3) groups.
Whether vaccination with CD200R antagonists could enhance the survival of tumor-bearing mice was also studied. […] GL261 tumor bearing mice were vaccinated weekly with saline, tumor lysates (TL) or tumor lysates+an antagonist (4004, 4013, 6059).
Tumor-bearing mice were inoculated in the brain with 10 μg of the inhibitor 6059 at the same coordinates at which the tumor was injected two days previously. This was followed by weekly injections of tumor lysate+inhibitor (FIGS. 5A-5B).
(§1) Tumors were implanted into female C57BL/6 mice (6-8 wk old) (Jackson Laboratory) and maintained in a pathogen-free facility according to the guidelines of the University of Minnesota Animal Care and Use Committee. The GL261 orthotopic transplant model was established in C57BL/6 (B6) mice by inoculation with 15,000 GL261-Luc^+ cells in 1 μl of saline. Tumors were implanted stereotactically into the right striatum; coordinates were 2.5 mm lateral, 0.5 mm anterior of bregma, and 3 mm deep from the cortical surface of the brain^19. Tumor burden was determined by bioluminescent imaging. Light emitted from the tumors was quantified using Living Image software (Xenogen) and expressed as photons per second per centimeter squared per steradian (p/s/cm^2/sr). GL261 cells for tumor lysate vaccines were cultured in neural stem cell media consisting of DMEM/F12 (1:1) with L-glutamine, sodium bicarbonate, penicillin/streptomycin (100 U/ml), B27 and N2 supplements (Life Technologies), and 0.1 mg/ml Normocin (Invivogen). Cultures were maintained at 5% 02 and supplemented with 20 ng/ml EGF and FGF semiweekly (R&D Systems, Minneapolis, Minn.). […] Mice were euthanized when tumors reached 1000 mm^3. […] Tumor cells used to establish both models were cultured in DMEM containing 10% FBS, penicillin/streptomycin (100 U/ml), and 0.1 mg/ml Normocin (Invivogen) in atmospheric oxygen.
Tumor lysates were prepared by dissociating tumor cells with non-enzymatic dissociation solution (Sigma). Cells were then washed 3 times with PBS, re-suspended in 500 μL PBS, and frozen overnight at −80° C. Cells were then lysed by five freeze/thaw cycles of freezing in liquid nitrogen and thawing in a 55° C. water bath. Cell debris was pelleted by centrifugation at 14,000 RCF, and the protein concentration of the supernatant was determined using a Bradford assay. Lysates were stored at −80° C. until use. Each vaccine was prepared on the day of vaccination and consisted of 65 μg of protein tumor lysate and 10 μg Poly:ICLC (Oncovir, Inc.), with or without 50 μg of the 6059 peptide antagonist, in a final volume of 100 μL injected intradermally in the back of the neck. For survival studies, vaccines were administered weekly starting three days post-tumor implantation for a total of 6 doses. In T cell priming experiments, CD8 T-cell priming experiments, animals were vaccinated intradermally on four consecutive days with 100 μg Ovalbumin (OVA) and 10 μg Poly:ICLC, and once more on day eleven^19.

EMT6 tumor bearing mice = test: EMT6 breast carcinoma model: tumor lysate + CpG +/- competitive inhibitor, survival; type: in vivo, BALB/c mice
Protocol: FIG. 6. Percent survival of mice inoculated with 1×10^6 EMT6 cells. To determine if our competitive inhibitors worked in other tumor models, mice were inoculated in the fat pad with 1×10^6 EMT6 cells. Specifically, mice were vaccinated with 65 μg of EMT6 tumor lysates+50 μg of adjuvant CpG and 50 μg of different completive inhibitors (6059, 4004, 4013 and 6061) and monitored for survival. Saline and tumor lysate+adjuvant CpG were used as controls.
FIGS. 19A-19B. Select CD200 antagonists enhance survival. (FIG. 19A) EMT6 tumor bearing mice were vaccinated with tumor lysate, CpG+/−CD200 antagonist 4004, 4013 or 6059. […] Log-rank analysis was used for survival.
as §1

CD200R = target: T1, CD200R (Mus musculus, UniProt Q9ES57); details: reportedly; cited from earlier work
T1 sequence (Q9ES57 26-326): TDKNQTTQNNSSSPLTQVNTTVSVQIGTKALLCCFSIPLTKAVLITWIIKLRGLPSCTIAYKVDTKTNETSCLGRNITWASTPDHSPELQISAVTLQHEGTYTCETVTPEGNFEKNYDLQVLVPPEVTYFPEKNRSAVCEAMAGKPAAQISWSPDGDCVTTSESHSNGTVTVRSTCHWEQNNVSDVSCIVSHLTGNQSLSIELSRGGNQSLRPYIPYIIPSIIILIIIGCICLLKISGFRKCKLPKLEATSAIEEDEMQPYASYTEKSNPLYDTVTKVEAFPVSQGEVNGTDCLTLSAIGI

## NTIGDGGCY [Antagonist 6059]
GL261 tumor bearing mice; GL261, 10 μg in the brain on day 2, then tumor lysate + inhibitor
  Tumor growth after inoculation of the inhibitor into the CNS tumor site: Tumor growth was delayed; also recorded: further suppressed tumor growth
GL261 tumor bearing mice; GL261, tumor lysate + antagonist
  Survival enhancement / survival benefit: 30%
GL261 tumor bearing mice; GL261
  Tumor growth: tumors grow faster in mice vaccinated with saline or tumor lysate alone compared to mice vaccinated with tumor lysate plus an antagonist; also recorded: slowed tumor growth
GL261 tumor bearing mice; GL261, listed as CD200R antagonist
  Tumor growth: statistically significant inhibition of tumor growth
GL261 tumor bearing mice
  Survival: increased survival benefit; also recorded: enhancing survival
GL261 tumor bearing mice; listed as CD200R antagonist
  Survival: enhanced survival benefit
EMT6 tumor bearing mice
  Survival: results translated to a breast carcinoma (EMT6) model; also recorded: significantly extended survival benefit
CD200R
  Competition with CD200 for binding to CD200R: outcompetes the intact CD200 protein for binding to the CD200R

— patent US10576145B2, “CD200 inhibitors and methods of use thereof” (REGENTS OF THE UNIVERSITY OF MINNESOTA, priority 2014, dated 2020)
